The text below walks through data of patent publication US20260206759A1, “PYRAZOL-5-ETHER COMPOUND, AND PREPARATION METHOD THEREFOR AND USE THEREOF” (CAC NANTONG CHEMICAL CO., LTD., priority 2023, published 2026).

Holding throughout (assay type): in vivo
The test system of experiment [1] is wheat powdery mildew (Blumeria graminis (DC.) Speer). The experiment is described as follows: Whole-plant pot assay, control effect against wheat powdery mildew. The conditions noted are these: spray on wheat leaves, inoculation 24 h after treatment, assessed 10 days after inoculation. The method, then: Various kinds of pathogens were tested with the compounds of the present application. Unless otherwise specified in the examples and the present application, the preparation method of samples is as follows: 10 mg of the compound was weighed and dissolved in 1 mL DMF to prepare a 10000 ppm stock solution, and the stock solution was diluted with 0.05% Tween-80 aqueous solution to the required concentrations for activity tests.
In this example, the control effects of the prepared pyrazol-5-ether compounds against wheat powdery mildew (Blumeria graminis (DC.) Speer) were tested using the following method.
A whole-plant pot assay was employed for screening. The pesticide formulation was uniformly sprayed onto wheat leaves at the first true leaf stage using a laryngeal atomizer, with three replicates per treatment. The treated plant was air-dried naturally indoors. At 24 hours post-treatment, wheat powdery mildew spores (collected approximately 10 days after inoculation) were evenly dusted onto the compound-treated wheat leaves. Disease assessment was conducted 10 days after spore inoculation when symptom development stabilized in the control group. The assessment results were recorded on a 100-0 scale, where ‘100’ indicates complete disease absence and ‘0’ represents maximum disease severity.

Experiment [2] has as its system cucumber powdery mildew (Erysiphe cichoracearum). The experiment is described as follows: Whole-plant pot assay, control effect against cucumber powdery mildew. To be noted: 2.5 ppm, foliar spray on cucumber seedlings, inoculation 24 h after treatment. The method, then:
In this example, the control effects of the prepared pyrazol-5-ether compounds against cucumber powdery mildew (Erysiphe cichoracearum) were tested using the following method.
(§1) A whole-plant pot assay was employed for screening. […] Greenhouse-cultivated cucumber seedlings at the two-leaf stage served as test hosts for cucumber powdery mildew (Erysiphe cichoracearum). The compounds of the present application were sprayed on the leaves at designed concentrations, and lank controls sprayed with water were also set, in triplicate. At 24 hours post-treatment, pathogen inoculation was conducted. After inoculation, the plants were maintained in controlled environment chamber for constant humidity culture (temperature: 25° C. day/20° C. night, relative humidity: 95%-99%). After 24 hours of incubation, the plants were transferred to the greenhouse. Control effect assessments were conducted on the compounds when disease symptoms fully developed in controls (typically one week). The assessment results were recorded on a 100-0 scale, where ‘100’ indicates complete disease absence and ‘0’ represents maximum disease severity.

Experiment [3] relates to soybean rust (Phakopsora pachyrhizi). The experiment is described as follows: Whole-plant pot assay, control effect against soybean rust. To be noted: foliar spray on soybean plants, inoculation 24 h after treatment. As for the experimental part: In this example, the control effects of the prepared pyrazol-5-ether compounds against soybean rust (Phakopsora pachyrhizi) were tested using the following method.
as §1, with “soybean plants” for “cucumber seedlings”, “soybean rust (Phakopsora pachyrhizi).” for “cucumber powdery mildew (Erysiphe cichoracearum).”, “blank” for “lank”, “recorded according to the A Manual of Assessment Keys for Plant Diseases compiled by the American Phytopathological Society” for “recorded”

As for `CCN(C)/C=N/c1cc(Cl)c(Oc2cc(C(C)(C)C)nn2C)cc1C` [KC1], the “control effect against wheat powdery mildew” value is on record as 0% in experiment [1] (10 ppm) and 22.22% in experiment [1] (40 ppm). Besides, the “control effect against cucumber powdery mildew” value in experiment [2] is reported as 0%.

For `CCN(C)C=Nc1cc(C)c(Oc2c(C)c(C)nn2C)cc1C` [Compound 143], in experiment [1] (10 ppm), the “control effect against wheat powdery mildew” value amounted to 74.07%.

As to `CCN(C)C=Nc1cc(C)c(Oc2cc(C)nn2C)cc1Cl` [Compound 132], the “control effect against wheat powdery mildew” value in experiment [1] (10 ppm) turned out to be 74.07%.

Consider `Cc1cc(Oc2cc(C(C)(C)C)nn2C)c(Cl)cc1/N=C/N1CCCC1` [KC2], for which the “control effect against wheat powdery mildew” value in experiment [1] (10 ppm) and in experiment [1] (40 ppm) was 0% in each case. In addition, in experiment [2], the “control effect against cucumber powdery mildew” value is 0%.

Consider `CCN(C)/C=N/c1cc(C)c(Oc2cc(C(F)(F)F)nn2C)cc1C` [Compound 16, (E)-N′-[4-(1-methyl-3-trifluoromethyl-1H-pyrazol-5-yloxy)-2,5-dimethylphenyl]-N-ethyl-N-met hylformamidine], for which the results for the “control effect against wheat powdery mildew” value in experiment [1] (10 ppm) and in experiment [1] (40 ppm) were 81.48% and 96.30%, respectively.

Turning to `CCN(C)/C=N/c1cc(C)c(Oc2ccn(-c3ccc(Cl)cc3)n2)cc1C` [KC3], the “control effect against soybean rust” value in experiment [3] (4 ppm) is 0%; in experiment [3] (10 ppm) it was 22%. The “control effect against wheat powdery mildew” value amounted to 0% in experiment [1] (10 ppm) and 59.26% in experiment [1] (40 ppm). For the same molecule, the “control effect against cucumber powdery mildew” value in experiment [2] is 22.22%.
